Laboratory results taken from patent US20260315564A1, “THE USE OF TP3 (THYMOPENTIN ANALOG) BY INCREASING THE ACTIVITY AND NUMBER OF T-CELLS INVOLVED IN THE DEFENSE MECHANISM OF THE IMMUNE SYSTEM OF MAMMALS, FOR THE PREVENTION OR TREATMENT OF DISEASES TO EXTEND THE AVERAGE LIFESPAN” (priority 2023, published 2026).
Marks after values point to notes of the source that are not given here. Residues, ends and D or L forms follow the SMILES beside them.

Tests used:
[1] = test system: Antibody production (immunized with BVVT); assay: Antibody production (anti-BVVT titer) in Balb/c nu/nu mice; type: in vivo; details: ip, n = 10/group, control < 3.0
Procedure: (§1) Rats (Hannover Wistar) were treated (i.p.) within 6-12 hours after birth. Treatments after birth in a single session or in another examination • on the 7th day after the first treatment; • another group was vaccinated 3 times a week after the first day of treatment. • in a subsequent group, the treatments took place over three weeks (9× in total) (10-3,10-5,10-7//10-9, 10-11,10-12,10-13 M/animal, i.p.). • in the fourth test series, the animals were treated with TP fragments at 0, 1, 2, 4, or 5 days of age. The rats were randomly immunized on the 14th day after birth (1% BVVT with 0.5 ml cell suspension, i.p.). Immune responses were measured after 7 days on day 21 of the experiment. 1.2. Determination of anti-BVVT Ab titers (from rat blood samples ex vivo) • with the haemagglutination method (Takátsy and Fürész, 1955) on 96-well plates (Flow). 50 ul of 0.9% NaCl solution was added to each well. The sera (50 μl) were diluted by half dilution in 12 steps, mixed with 25 pμl 2% BVVT cell suspension, and incubated (1 hour at 37 °C). The hemagglutination titers of the sera are determined. Values expressed in logarithmic values refer to total agglutination.
Mice were treated for 4 weeks 3 times a week (every other day) with TP fragments (10-9, 10-8, 10-7//10-3, 10-2, 10-1 M/animal ip. (Veys et al., 1983) at the end of the treatments ([…]), the mice were immunized (with 0.5 ml 1% BVVT suspension ip. The immune response was expressed in antibody titers as above).

Anti-BVVT-Ab (IgM) = assay: Anti-BVVT-Ab titers (IgM) in newborn rats after single treatment (hemagglutination); type: in vivo, Hannover Wistar rats (newborn); details: 1x/ip, n = 12, control 6.3 (TP5), 5.2 (TP3)
Procedure: Rats (Hannover Wistar) were treated (i.p.) within 6-12 hours after birth. Treatments after birth in a single session or in another examination • on the 7th day after the first treatment; • another group was vaccinated 3 times a week after the first day of […]. treatment • in a subsequent group treated over three weeks (9× in total) (10-3,10-5,10-7//10-9, 10-11,10-12, 10-13 M/animal, i.p). • in the fourth test series, the animals were treated with TP fragments at 0, 1, 2, 4, or 5 days of age. The rats were unanimously immunized on the 14th day after birth (1% BVVT with 0.5 ml cell suspension, i.p.). Immune responses were measured after 7 days on day 21 of the experiment.
as §1

[2] = test system: Thy 1+, Lyt 1+, Lyt 2+ spleen cells; assay: Spleen cell subpopulations (Thy 1, Lyt 1, Lyt 2) in adult thymus-removed (Tx) mice; type: in vivo, C57BL mice (adult thymectomized); details: male, 1.0 mg/kg/ip, n = 8/group
Procedure: • D.1/Direct cytotoxicity test/for the detection of Thy, Lyt antigens (Fathman 1979, in Immunol Meth I. Eds. Lefkovits, Pernis, Acad Press, New York, pp. 212-213.) was used. Subpopulation ratios were determined from bone marrow cells, thymus, and spleen cells isolated from the lymphatic organs of mice. The cell suspensions (1.087-1.088 g/cm3) were centrifuged ona density gradient (2000 rpm, 20 minutes), and the cells were washed 3× with RPMI1640 medium containing 0.3% BSA, then adjusted to 107/ml. Thyl, Lyt 1, Lyt2 monoclonal antibodies (McAb/Ando I. (ICRF Human Tumor Immunol. UCM Med Sch. London) were obtained. 25 μl McAb and 25 ul cell suspension were incubated (60′, 40C1), after centrifugation (1250 rpm 10′), the cells were resuspended with 40 μul of diluted (1:50) rabbit complement, then incubated (370C, 60′). The cell suspensions were stained with 1:5 dilution of Eosin Y (Jansen). the ratio of live to non-living cells was determined.
(§2) After thymectomy, mice were treated with doses of 1 mg/kg, i.p. once a week for six weeks. Thy 1+, Lyt1+, and Lyt2+ in the spleen cells of mice at the age of 13 weeks cell proportions were determined based on what was previously described.

[3] = test system: transplanted skin graft rejection; assay: Rejection of the transplanted skin graft in adult thymus-removed (Tx) mice; type: in vivo, C57BL mice (adult thymectomized); details: for rejection of the transplanted skin graft: n = 8/group
Procedure: 1.3./Determination of the number of plaque-forming cells (PFC) (using rat spleen cells) The chopped splenocytes were placed in a culture medium (Parker 199) and then shaken with a shaker for 1 minute. The cells were suctioned from the surface of the rapidly settling tissue debris. Red blood cells were removed osmotically. Cell suspensions were adjusted to 107/ml. The cell suspensions were mixed with a 15% BVVT cell suspension in a ratio of 2:1. PFC was determined with the mixture using a modified chamber technique according to Channingham et al., 1966). Before filling the chamber, 50 μl of fresh diluted guinea pig serum (1:20) was added. The chambers (2-2/slide) were incubated (370C 45′) after sealing with paraffin, the formed plaques were counted under a microscope (at 400× magnification) within 2 hours Marker tests related to the rejection reaction of an adult thymus-depleted mouse skin graft 1.4./Rejection of skin transplants in nude mice after treatment with TP fragments (Snell et al., Transplantation 5, 492, 1967).
as §2
5. The Effect of TP3 was Tested on the Activity of the Immune System by Rejection of Skin Graft
• in adult thymectomized (Tx) C57BL mice.

DTH reaction (PPD) = assay: Delayed-type hypersensitivity (DTH) reaction in guinea pigs; type: in vivo; details: n = 12/group, PPD 217.9

CC(C)[C@H](NC(=O)[C@H](CC(=O)O)NC(=O)[C@H](CCCCN)NC(=O)[C@@H](N)CCCN=C(N)N)C(=O)N[C@@H](Cc1ccc(O)cc1)C(=O)O [TP5] (H-RKDVY-OH)
antibody production (titer) ([1]; 10^-2 M/mouse (M/eger)): 26.4 ** | antibody production (titer) ([1]; 10^-3 M/mouse (M/eger)): 19.8 | antibody production (titer) ([1]; 10^-4 M/mouse (M/eger)): 11.9 | antibody production (titer) ([1]; 10^-7 M/mouse (M/eger)): 24.6 ** | antibody production (titer) ([1]; 10^-8 M/mouse (M/eger)): 19.9 * | antibody production (titer) ([1]; 10^-9 M/mouse (M/eger)): 14.5 | Anti-BVVT-Ab titers (IgM) (Anti-BVVT-Ab (IgM); 10^-3 M/animal): 7.6 2 log | Anti-BVVT-Ab titers (IgM) (Anti-BVVT-Ab (IgM); 10^-4 M/animal): 8.1* 2 log | Anti-BVVT-Ab titers (IgM) (Anti-BVVT-Ab (IgM); 10^-5 M/animal): 8.6* 2 log | Anti-BVVT-Ab titers (IgM) (Anti-BVVT-Ab (IgM); 10^-6 M/animal): 8.5* 2 log | Anti-BVVT-Ab titers (IgM) (Anti-BVVT-Ab (IgM); 10^-9 M/animal): 8.0* 2 log | Anti-BVVT-Ab titers (IgM) (Anti-BVVT-Ab (IgM); 10^-11 M/animal): 7.7 2 log | Anti-BVVT-Ab titers (IgM) (Anti-BVVT-Ab (IgM); 10^-13 M/animal): 7.0 2 log | Lyt1/Lyt2 ([2]; control 1.77, Tx 1.96): 1.63 | Lyt 2 spleen cells ([2]; control 13.7, Tx 9.6): 14.2* % | Lyt 1 spleen cells ([2]; control 24.3, Tx 18.8): 23.2* % | Thy 1 spleen cells ([2]; control 30.1, Tx 8.1): 21.2% | rejection of the transplanted skin graft ([3]; female Tx C57BL mice, untreated control 14.5, Tx 54.6): 23.1** | rejection of the transplanted skin graft ([3]; male Tx C57BL mice, untreated control 27.8, Tx 59.8): 41.3 | recovery of T cells / shortening of skin graft survival time ([3]; male mice, rank in words): TP5>TP3 | DTH reaction, skin redness (bőrpir) (DTH reaction (PPD); 0.1 mg/kg/s.c.): 127.7* mm/π | DTH reaction, skin redness (bőrpir) (DTH reaction (PPD); 1.0 mg/kg/s.c.): 158.1 mm/π | DTH reaction, skin redness (bőrpir) (DTH reaction (PPD); 20.0 mg/kg/s.c.): 194.6 mm/π
